Laboratory results taken from patent publication US20200331904A1, “3-AMINO-[1,2,4]-TRIAZOLE DERIVATIVES AND THEIR USE FOR CONTROLLING UNDESIRED PLANT GROWTH” (Bayer CropScience Aktiengesellschaft, priority 2017, published 2020).

Key:
Assay type in all cases: in vivo
Echinochloa crus-galli [1] = assay: Pre-emergence herbicidal efficacy, ECHCG; settings: Table B1, application rate 320 g/ha, scored visually after about 3 weeks vs untreated controls
Outline: (§1)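 Seeds were sown in pots and covered with soil; WP or EC formulations were sprayed onto the soil surface as aqueous suspension or emulsion with 0.5% additive. Pots were kept in a greenhouse, and after about 3 weeks damage was rated visually as percent versus untreated controls (100% = plants dead, 0% = like control).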

Lolium rigidum = assay: Pre-emergence herbicidal efficacy, LOLRI; settings: Table B1, application rate 320 g/ha, scored visually after about 3 weeks vs untreated controls
Source text: C.1 Pre-Emergence Herbicidal Action and Crop Plant Compatibility Seeds of monocotyledonous and dicotyledonous weed plants and crop plants are placed in plastic or organic planting pots and covered with soil. The compounds of the invention, formulated in the form of wettable powders (WP) or as emulsion concentrates (EC), are then applied onto the surface of the covering soil as aqueous suspension or emulsion with addition of 0.5% additive at a water application rate of […] (converted). After the treatment, the pots are placed in a greenhouse and kept under good growth conditions for the trial plants. After about 3 weeks, the effect of the preparations is scored visually in comparison with untreated controls as percentages. For example, 100% activity=the plants have died, 0% activity=like control plants. […] Here, for example, compound Nos. I-214 and I-196, when applied pre-emergence, have very good activity (80% to 100% herbicidal activity) against harmful plants such as Abutilon theophrasti, Amaranthus retroflexus, Echinochloa crus-galli, Lolium rigidum, Matricaria inodora, Polygonum convolvulus, Setaria viridis, Stellaria media, Veronica persica and Viola tricolor at an application rate of 0.32 kg of active substance or less per hectare. At the same time, some of the compounds according to the invention leave Gramineae crops such as barley, wheat, rye, millet/sorghum, corn, rice or sugar cane virtually undamaged when applied pre-emergence, even at high active compound dosages. In addition, some substances are also harmless to dicotyledonous crops such as soya, cotton, oilseed rape or sugar beet.

Setaria viridis = assay: Pre-emergence herbicidal efficacy, SETVI; settings: Table B1, application rate 320 g/ha, scored visually after about 3 weeks vs untreated controls
Outline: as §1

Abutilon theophrasti = assay: Pre-emergence herbicidal efficacy, ABUTH; settings: Table B1, application rate 320 g/ha, scored visually after about 3 weeks vs untreated controls
Outline: as §1

Amaranthus retroflexus [2] = assay: Pre-emergence herbicidal efficacy, AMARE; settings: Table B1, application rate 320 g/ha, scored visually after about 3 weeks vs untreated controls
Outline: as §1

Matricaria inodora = assay: Pre-emergence herbicidal efficacy, MATIN; settings: Table B1, application rate 320 g/ha, scored visually after about 3 weeks vs untreated controls
Outline: as §1

Polygonum convolvulus = assay: Pre-emergence herbicidal efficacy, POLCO; settings: Table B1, application rate 320 g/ha, scored visually after about 3 weeks vs untreated controls
Outline: as §1

Stellaria media [3] = assay: Pre-emergence herbicidal efficacy, STEME; settings: Table B1, application rate 320 g/ha, scored visually after about 3 weeks vs untreated controls
Outline: as §1

Viola tricolor [4] = assay: Pre-emergence herbicidal efficacy, VIOTR; settings: Table B1, application rate 320 g/ha, scored visually after about 3 weeks vs untreated controls
Outline: as §1

Veronica persica [5] = assay: Pre-emergence herbicidal efficacy, VERPE; settings: Table B1, application rate 320 g/ha, scored visually after about 3 weeks vs untreated controls
Outline: as §1

Viola tricolor [6] = assay: Post-emergence herbicidal efficacy, VIOTR
Source text: (§2) ABUTH: Abutilon theophrasti ALOMY: Alopecurus myosuroides AMARE: Amaranthus retroflexus AVEFA: Avena fatua CYPES: Cyperus esculentus ECHCG: Echinochloa crus-galli LOLMU: Lolium multiflorum MATIN: Matricaria inodora PHBPU: Ipomoea purpurea POLCO: Polygonum convolvulus SETVI: Setaria viridis STEME: Stellaria media VERPE: Veronica persica VTOTR: Viola tricolor
(§3) C.2 Post-Emergence Herbicidal Action and Crop Plant Compatibility
(§4) Seeds of monocotyledonous and dicotyledonous weeds and crop plants are placed in sandy loam in plastic or organic planting pots, covered with soil and cultivated in a greenhouse under controlled growth conditions. 2 to 3 weeks after sowing, the test plants are treated at the one-leaf stage. The compounds of the invention, formulated in the form of wettable powders (WP) or as emulsion concentrates (EC), are then sprayed onto the green parts of the plants as aqueous suspension or emulsion with addition of 0.5% additive at a water application rate of […] (converted). After the test plants had been kept in the greenhouse under optimum growth conditions for about 3 weeks, the activity of the preparations is rated visually in comparison to untreated controls. For example, 100% activity=the plants have died, 0% activity=like control plants.

Veronica persica [7] = assay: Post-emergence herbicidal efficacy, VERPE
Source text: as §2, §3, §4

Echinochloa crus-galli [8] = assay: Post-emergence herbicidal efficacy, ECHCG; settings: application rate 320 g/ha, rated visually after about 3 weeks
Source text: as §2, §3, §4

Amaranthus retroflexus [9] = assay: Post-emergence herbicidal efficacy, AMARE; settings: application rate 320 g/ha, rated visually after about 3 weeks
Source text: as §2, §3, §4

Stellaria media [10] = assay: Post-emergence herbicidal efficacy, STEME; settings: application rate 320 g/ha, rated visually after about 3 weeks
Source text: as §2, §3, §4

[11] = application rate 320 g/ha, rated visually after about 3 weeks (Table B7)
[12] = application rate 1280 g/ha, rated visually after about 3 weeks
[13] = application rate 320 g/ha, rated visually after about 3 weeks (Table B5)

| Structure (SMILES) | Herbicidal efficacy against ECHCG (Echinochloa crus-galli [1]) [%] | Herbicidal efficacy against LOLRI (Lolium rigidum) [%] | Herbicidal efficacy against SETVI (Setaria viridis) [%] | Herbicidal efficacy against ABUTH (Abutilon theophrasti) [%] | Herbicidal efficacy against AMARE (Amaranthus retroflexus [2]) [%] | Herbicidal efficacy against MATIN (Matricaria inodora) [%] | Herbicidal efficacy against POLCO (Polygonum convolvulus) [%] | Herbicidal efficacy against STEME (Stellaria media [3]) [%] | Herbicidal efficacy against VIOTR (Viola tricolor [4]) [%] | Herbicidal efficacy against VERPE (Veronica persica [5]) [%] | Herbicidal efficacy against VIOTR (Viola tricolor [6]; [11]) [%] | Herbicidal efficacy against VERPE (Veronica persica [7]; [11]) [%] | Herbicidal efficacy against VIOTR (Viola tricolor [6]; [12]) [%] | Herbicidal efficacy against VERPE (Veronica persica [7]; [12]) [%] | Herbicidal efficacy against ECHCG (Echinochloa crus-galli [8]) [%] | Herbicidal efficacy against AMARE (Amaranthus retroflexus [9]) [%] | Herbicidal efficacy against STEME (Stellaria media [10]) [%] | Herbicidal efficacy against VIOTR (Viola tricolor [6]; [13]) [%] | Herbicidal efficacy against VERPE (Veronica persica [7]; [13]) [%] |
| --- | --- | --- | --- | --- | --- | --- | --- | --- | --- | --- | --- | --- | --- | --- | --- | --- | --- | --- | --- |
| CC(=O)N1CCn2nc(N[C@@H]3CCCc4ccccc43)nc2C1 [Example I-163] | 100 | 80 | 100 | 100 | 100 | 100 | 100 | 100 | 100 | 100 | 80 | 90 | – | – | – | – | – | – | – |
| CC(=O)N1CCn2nc(NC3c4cc(C)ccc4CC3C)nc2C1 (centres unmarked) [Example I-165] | 100 | 100 | 100 | 100 | 100 | 100 | 100 | 100 | 100 | 100 | 80 | 90 | – | – | – | – | – | – | – |
| CC(=O)N1CCn2nc(N[C@@H]3CCc4ccc(C)cc43)nc2C1 [Example I-173] | 100 | 100 | 100 | 100 | 100 | 100 | 100 | 100 | 100 | 100 | 80 | 90 | – | – | – | – | – | – | – |
| Cc1ccc2c(c1)[C@H](Nc1nc3n(n1)CCN(S(C)(=O)=O)C3)[C@@H](C)C2 [Example I-190] | 100 | 100 | 100 | 100 | 100 | 100 | 100 | 100 | 100 | 100 | 80 | 80 | – | – | – | – | – | – | – |
| Cc1ccc2c(c1)[C@H](Nc1nc3n(n1)CCN(S(C)(=O)=O)C3)CCC2 [Example I-198] | 90 | 100 | 90 | 100 | 100 | 100 | 100 | 100 | 100 | 100 | 80 | 90 | – | – | – | – | – | – | – |
| Cc1ccc2c(c1)[C@H](Nc1nc3n(n1)CCN(S(=O)(=O)C1CC1)C3)CCC2 [Example I-200] | 100 | 100 | 100 | 100 | 100 | 100 | 100 | 100 | 100 | 100 | 80 | 100 | – | – | – | – | – | – | – |
| Fc1cccc2c1CCC[C@H]2Nc1nc2n(n1)CCCCS2 [Example I-213] | 100 | 100 | 100 | 100 | 100 | 100 | 100 | 100 | 100 | 100 | 90 | 90 | – | – | – | – | – | – | – |
| Cc1ccc2c(c1)C(Nc1nc3n(n1)CCC(=O)N3C)CC2 (centres unmarked) [Example I-227] | 100 | 100 | 100 | 100 | 100 | 100 | 100 | 100 | 100 | 100 | 90 | 100 | – | – | – | – | – | – | – |
| Cc1ccc2c(c1)C(Nc1nc3n(n1)CCCCS3(=O)=O)CCC2 (centres unmarked) [Example I-234] | 100 | 100 | 100 | 100 | 100 | 100 | 100 | 100 | 100 | 100 | 90 | 80 | – | – | – | – | – | – | – |
| Cc1ccc2c(c1)C(Nc1nc3n(n1)CCCC[S+]3[O-])CC2 (centres unmarked) [Example I-245] | 100 | 100 | 100 | 100 | 100 | 100 | 100 | 100 | 100 | 100 | 80 | 90 | – | – | – | – | – | – | – |
| [O-][S+]1CCCCn2nc(NC3CCCc4ccccc43)nc21 (centres unmarked) [Example I-249] | 100 | – | 100 | 100 | 100 | 100 | 100 | 100 | 100 | 100 | – | – | 80 | 80 | – | – | – | – | – |
| c1ccc2c(c1)CCC[C@H]2Nc1nc2n(n1)CCCCS2 [Example I-355] | 100 | 80 | 100 | 100 | 100 | 100 | 100 | 100 | 100 | 100 | – | – | – | – | 100 | 80 | 100 | 80 | 80 |
